Data reported in ChEMBL document CHEMBL1201862, “PubChem BioAssay data set” (2004).
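1) Cells in 96-well plates. 2) Compound, 48 h, 5 concentrations. 3) Linear interpolation between surrounding doses. 4) Unreached endpoint = highest concentration. The concentration for 50% growth inhibition is given as GI50.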 Active and inactive are the calls of the source. No stated cut-off is given here; in the data, active = GI50 up to about 1.1 µM and inactive = higher.

How the values were obtained:
Test in all cases: NCI tumour cell line growth inhibition, 48 h
SW-620 = system: SW-620
UACC-257 = system: UACC-257
DU-145 = system: DU-145
SF-268 = system: SF-268
IGROV-1 = system: IGROV-1
MCF7 = system: MCF7
LOX IMVI = system: LOX IMVI
HCC 2998 = system: HCC 2998
MDA-MB-435 = system: MDA-MB-435
U-251 = system: U-251
786-0 = system: 786-0
UO-31 = system: UO-31
CCRF-CEM = system: CCRF-CEM
T47D = system: T47D
NCI/ADR-RES = system: NCI/ADR-RES
CAKI-1 = system: CAKI-1
UACC-62 = system: UACC-62
MDA-MB-231 = system: MDA-MB-231
OVCAR-5 = system: OVCAR-5
A549 = system: A549

Measured: GI50

COc1ccc2c(c1)c1c(n2CCN(C)C)-c2cccc(OC)c2CC1
inactive: SW-620 > 10 µM | UACC-257 17.3 µM | DU-145 17.7 µM | SF-268 17.9 µM | IGROV-1 18.5 µM | MCF7 13.2 µM | LOX IMVI 13.4 µM | HCC 2998 11.6 µM | MDA-MB-435 12 µM | U-251 11.6 µM | 786-0 22.3 µM | UO-31 14.9 µM | CCRF-CEM 2.65 µM | T47D 10 µM | NCI/ADR-RES 17.5 µM | CAKI-1 13.1 µM | UACC-62 15.2 µM | MDA-MB-231 13.7 µM | OVCAR-5 15.7 µM | A549 12.3 µM

COc1cc2c3c4[n+](cc2c(OC)c1OC)CCC4CCC3 (stereo not drawn)
inactive: SW-620 > 100 µM | UACC-257 57.3 µM | DU-145 > 100 µM | SF-268 > 100 µM | IGROV-1 > 100 µM | MCF7 75.2 µM | LOX IMVI > 100 µM | HCC 2998 > 93.1 µM | MDA-MB-435 > 100 µM | U-251 53.8 µM | 786-0 > 100 µM | UO-31 > 100 µM | CCRF-CEM > 62.1 µM | T47D 24.9 µM | NCI/ADR-RES > 100 µM | CAKI-1 > 100 µM | UACC-62 > 100 µM | MDA-MB-231 > 100 µM | OVCAR-5 > 100 µM | A549 > 100 µM

CC(=O)NNC1=NN(C(C)=O)C2(S1)C(=O)Nc1ccccc12 (stereo not drawn)
inactive: SW-620 > 100 µM | UACC-257 > 10 µM | DU-145 > 100 µM | SF-268 > 100 µM | IGROV-1 > 100 µM | MCF7 > 100 µM | LOX IMVI > 100 µM | HCC 2998 > 100 µM | MDA-MB-435 > 100 µM | U-251 > 100 µM | 786-0 > 100 µM | UO-31 > 100 µM | CCRF-CEM > 100 µM | T47D > 100 µM | NCI/ADR-RES > 100 µM | CAKI-1 > 100 µM | UACC-62 > 100 µM | MDA-MB-231 > 100 µM | OVCAR-5 > 100 µM

Cc1ccc(NC(=O)c2ccc(OP(=O)(O)Nc3ccc(C)cc3)cc2)cc1
inactive: SW-620 > 100 µM | UACC-257 > 100 µM | DU-145 > 100 µM | SF-268 > 100 µM | IGROV-1 > 100 µM | MCF7 > 100 µM | LOX IMVI > 100 µM | HCC 2998 > 100 µM | MDA-MB-435 > 100 µM | U-251 > 100 µM | 786-0 > 100 µM | UO-31 66.8 µM | CCRF-CEM > 100 µM | T47D > 100 µM | NCI/ADR-RES > 100 µM | CAKI-1 > 100 µM | UACC-62 > 100 µM | MDA-MB-231 > 100 µM | OVCAR-5 > 100 µM | A549 > 100 µM

C=C(C)[C@@H](C(=O)OC)N1C(=O)c2ccccc2C1=O
inactive: SW-620 > 100 µM | UACC-257 > 100 µM | DU-145 > 100 µM | SF-268 > 100 µM | IGROV-1 > 100 µM | MCF7 > 100 µM | LOX IMVI > 100 µM | HCC 2998 > 100 µM | MDA-MB-435 > 100 µM | U-251 > 100 µM | 786-0 > 100 µM | UO-31 > 100 µM | CCRF-CEM > 100 µM | T47D > 100 µM | NCI/ADR-RES > 100 µM | CAKI-1 > 100 µM | UACC-62 > 100 µM | MDA-MB-231 > 100 µM | OVCAR-5 > 100 µM | A549 > 100 µM

CC(C)=CC1C(C(=O)Oc2ccccc2C(C)C)C1(C)C (stereo not drawn)
inactive: SW-620 24.3 µM | UACC-257 19.5 µM | DU-145 40.5 µM | SF-268 35.5 µM | IGROV-1 29.8 µM | MCF7 19.8 µM | LOX IMVI 17.7 µM | HCC 2998 17.8 µM | MDA-MB-435 30.8 µM | U-251 16.7 µM | 786-0 19.9 µM | UO-31 17.7 µM | CCRF-CEM 22.8 µM | T47D 19.8 µM | NCI/ADR-RES 30 µM | CAKI-1 32.4 µM | UACC-62 36.7 µM | MDA-MB-231 22.9 µM | OVCAR-5 27.1 µM | A549 31.1 µM

C=C1C(=O)OC2CC(C)C(/C=C/C(C)=O)=CCC12 (stereo not drawn)
inactive: SW-620 61.8 µM | UACC-257 > 100 µM | DU-145 > 100 µM | SF-268 > 100 µM | IGROV-1 > 100 µM | MCF7 > 100 µM | LOX IMVI > 100 µM | HCC 2998 > 100 µM | MDA-MB-435 > 100 µM | U-251 > 100 µM | 786-0 26.4 µM | CCRF-CEM 40 µM | T47D > 100 µM | NCI/ADR-RES > 100 µM | CAKI-1 > 100 µM | UACC-62 > 100 µM | MDA-MB-231 > 100 µM | OVCAR-5 > 100 µM | A549 > 100 µM
